Laboratory results taken from the kinase profiling compilation of Christmann-Franck et al. (2016).

Molecular target: SGK1 (human) (UniProt O00141)
Assay: Flashplate

Sequence of SGK1 (human) (O00141 whole entry, looked up): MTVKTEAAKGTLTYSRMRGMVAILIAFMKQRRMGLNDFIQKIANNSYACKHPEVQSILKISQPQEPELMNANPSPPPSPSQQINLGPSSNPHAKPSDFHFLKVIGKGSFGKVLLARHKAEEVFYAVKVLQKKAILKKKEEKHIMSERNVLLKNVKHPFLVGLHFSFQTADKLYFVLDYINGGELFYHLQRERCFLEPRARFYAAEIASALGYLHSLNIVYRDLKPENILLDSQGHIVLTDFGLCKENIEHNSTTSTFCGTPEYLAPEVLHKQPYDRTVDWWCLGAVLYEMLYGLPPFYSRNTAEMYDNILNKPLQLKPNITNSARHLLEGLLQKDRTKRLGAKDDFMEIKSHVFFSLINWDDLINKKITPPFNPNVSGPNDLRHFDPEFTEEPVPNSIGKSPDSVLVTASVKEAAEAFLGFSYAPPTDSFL

Ki [µM]	SMILES
> 10	O=C(c1cc(Cc2n[nH]c(=O)c3c2CCCC3)ccc1F)N1CCN(c2ncccn2)CC1
> 10	Fc1ccc(-c2nc3sccn3c2-c2ccncc2)cc1
> 10	CC(C)NC(=O)COc1cccc(-c2nc(Nc3ccc4[nH]ncc4c3)c3ccccc3n2)c1
> 10	Cc1cc(O)ccc1-n1cc(C(=O)NN)c(=O)c2ccc(-c3ccncc3)cc21
3.16	COc1ccc(-c2cnc3c(Br)cnn3c2)cc1
> 10	O=C(NCc1ccccc1)c1cccc(-c2cnc3[nH]ccc3c2)c1
> 10	Nc1ncnc2c1c(I)nn2[C@@H]1O[C@H](CO)[C@@H](O)[C@H]1O
> 10	COc1cccc(/C=C2/S/C(=N\c3ccccc3)NC2=O)c1
0.251	COc1cccc(C(CN)NC(=O)c2ccc(-c3ccncc3)cc2)c1 (centres undefined)
> 10	Cc1ccc(NC(=O)Nc2ccc(-c3coc4ncnc(N)c34)cc2)cc1
> 10	CCCCNC1=NS(=O)N=C1Nc1ccc(F)cc1 (centres undefined)
2.51	Nc1n[nH]c2ccc(-c3nnn(Cc4ccccc4)c3-c3ccc(F)cc3)cc12
> 10	Cc1ccc(NC(=O)Nc2ccc(-c3csc4c(-c5cnn(C(C)C(=O)N(C)C)c5)cnc(N)c34)cc2)cc1 (centres undefined)
> 10	CC(C)(CO)c1nnc2ccc(-c3c(-c4ccc(F)cc4F)nc4occn34)nn12
> 10	CC(C)(CO)CNc1nccc(-c2c(-c3ccc(F)cc3)nc3cnccn23)n1
> 10	Cc1cc(C)cc(NC(=O)Nc2ccc(-c3cccc4sncc34)cc2)c1
> 10	COCCNc1nccc(-c2c(-c3ccc(F)cc3)nc3cnccn23)n1
5.01	Cc1[nH]c(/C=C2\C(=O)Nc3ccccc32)c(C)c1CCC(=O)O
6.31	O=C(N[C@H](CO)Cc1ccccc1)c1ccc(-c2ccncc2)cc1
> 10	NC(=O)c1cc(-c2cccc(N)c2)cc2cccnc12
> 10	Cc1ccc(F)c(-c2ccc3nnc(N)n3c2)c1
> 10	CSc1ccc2nc3c(c(Cl)c2c1)CCNC3=O

Ki [µM]	SMILES
7.94	CN1CCC(C(=O)n2nc(N)c3cc(-c4cn(Cc5ccccc5)nn4)ccc32)CC1
> 10	CS(=O)(=O)N(Cc1ccc2[nH]c(=O)c3cccn3c2c1)C1CC1
> 10	O=C(c1cc(-c2ccc3[nH]ncc3c2)on1)N1CCCCC1
> 10	O=c1[nH]c2cnc(-n3cnc4ccc(F)cc43)nc2n1[C@@H]1CCOc2c(F)cccc21
> 10	COCCn1cc(-c2ccncn2)c(-c2ccc(Cl)cc2)n1
3.16	Cc1ccc(C(=O)Nc2c(C(N)=O)sc3ccc(Cl)c(Cl)c23)cc1
> 10	CC(C)(CO)CNc1nccc(-c2c(-c3ccc(F)cc3)nc3c(OCC(F)(F)F)nccn23)n1
2	Nc1ncnc2c1c(I)nn2[C@H]1CC[C@@H](O)CC1
2	Cc1cccc(NC(=O)Nc2ccc(-c3cccc4[nH]ncc34)cc2)c1
0.501	Cc1c(O)ccc2c1CCC/C2=N/NC(=O)Cc1cccc2ccccc12
> 10	Cc1cccc(NC(=O)Nc2ccc(-c3csc4c(C#Cc5cccnc5)cnc(N)c34)cc2)c1
5.01	O=C(Nc1cnc2[nH]cc(-c3ccccc3)c2c1)c1ccc(Cl)cc1
> 10	CC(C)n1nnc2ccc(-c3c(-c4ccc(F)cc4F)nc4occn34)cc21
> 10	O=C(N/N=C/c1ccc(Sc2nc3ccccc3[nH]2)o1)c1cccc([N+](=O)[O-])c1
> 10	Cc1cccc(NC(=O)Nc2ccc(-c3csc4c(-c5cnn(C[C@H](C)O)c5)cnc(N)c34)cc2)c1
> 10	Cc1ccc(NC(=O)Nc2ccc(-c3cccc4c3CNC4=O)cc2)cc1C
0.316	COc1cccc([C@@H](C)NC(=O)c2ccc(-c3ccncc3)c(F)c2)c1
0.501	OCCNc1cc2cc(-c3ccsc3)ccc2cn1
0.2	CCn1c(-c2nonc2N)nc2cnc(Oc3cccc(NC(=O)c4ccc(OCCN5CCOCC5)cc4)c3)cc21
> 10	Nc1ncnc2sc3c(c12)-c1ccc(NC(=O)Nc2ccccc2)cc1CC3
1	O=C1NCCc2[nH]c(-c3ccnc(/C=C/c4ccccc4)c3)cc21
> 10	Nc1ncnc2scc(C(=O)Nc3ccc(NC(=O)Nc4ccccc4)cc3)c12
